The record followed here is paper PMC6158189, “A pharmacological probe identifies cystathionine β-synthase as a new negative regulator for ferroptosis” (Cell Death & Disease, 2018).

SMILES strings stand for the structures. “Also recorded” adds a separate entry of the source.

The test system of test [1] is HEK293T cells expressing CBS Q222A mutant. Briefly: cell viability of HEK293T stable line expressing CBS Q222A. Type of test: cell-based. Particulars: 10 µM, 24 h. The procedure:
Figure S15. The mode of actions for CH004 in cells. […] Indicated HEK293T stable cell lines were treated with CH004 at a concentration of 10 µM for 24 h, and the cell viability was then measured using the CellTiter96® Aqueous One Solution Cell Proliferation Assay (Promega). Means ± SDs (n=3). (B-C) CH004 or erastin triggers ferroptosis in mouse embryonic fibroblasts (MEF). WT MEF cells were treated with CH004 or erastin at indicated concentrations in the presence or the absence of 500 µM DFO for 24 h before measuring the lipid ROS with 2 μM BODIPY® 581/591 C11 (Materials and methods). […] Erastin at micromolar concentrations were incubated with HepG2 cells for 24 h before measuring the lipid ROS (see above and Materials and methods). […] Means ± SDs (n=3). […] CH004 or erastin at a concentration of 20 µM was incubated with HepG2 cells for 48 h or 72 h in the presence or the absence of 100 µM DFO. The cell viability was accordingly quantified using the CellTiter96® Aqueous One Solution Cell Proliferation Assay (Promega) and the results were shown as percentages of DMSO (control, 100%). Means ± SDs (n=3). All the experiments were independently repeated at least twice and one representative result is present. Table S1 The inhibitory effects of CH004 on purified hCBS, hCSE and hDDC.

Another test deals with HepG2 cells. Kind of test: cellular cystathionine by LC/ESI-MS/MS. Type of test: cell-based, human. Particulars: 8 h, 100 μM Hcys and 100 μM Ser. Here is the method: The effect of CH004 on the level of CTH in HepG2 cells was determined by a liquid chromatography-tandem mass spectrometry (LC/ESI-MS/MS). We followed a condition, which was previously established with LC/ESI-MS/MS[56], for quantification of CTH. […] We selected the 223.1 → 88.1 transition for the quantitative method. Briefly, after the incubation with the compounds for 8 h in the presence of 100 μM Hcys and 100 μM Ser, the HepG2 cells were lysed with liquid nitrogen. 10 μl supernatant was injected to the Ultra Performance Liquid Chromatographic system on a Zorbax XDB C18 reverse phase column (4.6 × 150 mm, temperature-controlled at 10 °C), and eluted isogradiently with a solution mixed from acetonitrile (in the presence of 0.1% formic acid) and water (0.1% formic acid) (2:98, v/v) at a flow rate of 0.4 ml/min in a diode array detector (Agilent G4212A). The Agilent 6470 UHPLC-QqQ/MS system composes of a chomatographic system (Agilent 1260 Infinity) and a Triple Quad mass spectrometer fitted with an ESI source. Data was acquired in the MRM mode using Agilent MassHunter Workstation Data Acquisition Software (revision B.04).
Figure S14. […] All images are representative of three independent experiments. […] Means ± SDs (n=2).

Consider `Cn1nc(Cc2ccccc2)nc2c(=O)n(C)c(=O)nc1-2` [CH004, 3-benzyl-1,6-dimethylpyrimido[5,4-e][1,2,4]triazine-5,7(1H,6H)-dione], for which the “cell death triggered by CH004 in cells expressing CH004-insensitive CBS Q222A” value in test [1] is recorded as “partially rescues”. For the same compound, the “level of cystathionine (CTH)” value in the test on HepG2 cells is “dose-dependently inhibits; also recorded: largely reduced”.
